Here are results for 4 molecules from paper PMC10380841, “Synthesis, Characterization and Cytotoxic Evaluation of New Pyrrolo[1,2-b]pyridazines Obtained via Mesoionic Oxazolo-Pyridazinones” (International Journal of Molecular Sciences, 2023).

Like-named read-outs stand apart in the source and are kept apart here.

The test system of one data set is Artemia nauplii. More on the design: method as in PMID 16445096. The conditions noted are these: at 24 and 48 h; cited from earlier work.
The subject of data set [1] is MCF-7 breast adenocarcinoma cells. Briefly: MTS cytotoxicity assay, MCF-7. The data set is classed as cell-based, human. Particulars: Homo sapiens, MCF7; for viability at 40 µM: MCF-7, 40 μM; for viability at 40 µM / viability at 200 µM: read-out: cell viability; for viability at 200 µM: MCF-7, 200 μM. The procedure:
(§1) Therefore, the precursor acids 2a–c and corresponding pyrrolo[1,2-b]pyridazines 5a–c,f were tested for their potential cytotoxic activity. During the assays, increasing concentrations of the compounds, ranging from […], were added for 24 h or 48 h to cancer LoVo, SK-OV-3, MCF-7, and the reference HUVEC cells, previously cultured for 24 h in 96-well flat bottom plates. […] Then, MTS reagent was added, and cells were incubated for 4 h at 37 °C in a 5% CO2 humidified atmosphere. The absorbance values were spectrophotometrically read to a Dynex ELISA reader at λ = […].
(§2) For the evaluation of the in vitro potential anti-proliferative effects of treatments with the new compounds under study against solid tumor-derived cells, several compound-mediated cytotoxicity assays were performed on three adherent tumor standardized cell lines, and normal human endothelial cells, used as control: the MCF-7 human breast adenocarcinoma and SK-OV-3 human ovary adenocarcinoma cell lines were provided from European Collection of Authenticated Cell Cultures (ECACC), while LoVo, human colorectal adenocarcinoma cell line, and HUVEC human umbilical vein endothelial cells were purchased from American Type Culture Collection (ATCC).
(§3) Adherent cells were cultivated in DMEM/F12 medium added with 2 mM L-glutamine and 10% fetal bovine serum, 100 units/mL penicillin, 100 µg/mL streptomycin (Sigma Aldrich, St. Louis, MO, USA) and incubated at 37 °C in 5% CO2 humidified atmosphere. The stock solutions for cell treatments were prepared by dissolving the synthesized compounds in a minimum amount of DMSO. Working dilutions were prepared from the stock solutions in culture medium before each treatment assay. After 24 h, when cell cultures achieved around 70% confluence, treatments were applied for various periods of time with different concentrations of synthesized compounds or oncolytic drugs, used as positive controls.
(§4) Therefore, cell cultures treated with the new compounds or oncolytic drugs for 24 h or 48 h were further subjected to a colorimetric cell viability method, the MTS assay. The absorbance of probes was read, data were calculated, and percentages of cell viability were assessed.
The evaluation of the compound-induced cytotoxicity was made using the CellTiter 96 Aqueous One Solution Cell Proliferation Assay (Promega, Madison, WI, USA), a reagent that contains both MTS (3-(4,5-dimethylthiazol-2-yl)-5-(3-carboxymethoxyphenyl)-2-(4-sulfophenyl)-2H-tetrazolium, inner salt) and PES ([…], a cationic dye with high chemical stability that binds to MTS and forms a stable solution). The assay is based on the ability of the metabolically active cells to reduce the yellow tetrazolium salt MTS to a compound that is soluble in culture medium, the colored formazan, followed by the spectrophotometric evaluation of its concentration.
(§5) Briefly, 1.5 × 10^4 cancer or normal cells were cultured in 100 µL/well for 24 h. After the culture supernatants were discarded, cells were treated for additional 24 h or 48 h with increasing concentrations of new compounds or oncolytic drugs. Following the specific treatments, in each well a volume of 20 µL of coloring mixture reagent of MTS and PES was added, and then the plates were incubated with mild agitation every 20 min for 4 h at 37 °C. The color developed during incubation was spectrophotometrically quantified at λ = 492 nm using a Dynex ELISA reader (DYNEX Technologies—MRS, Chantilly, VA, USA).
(§6) Data were expressed as percentages of cell viability of the treated cells, and were calculated and compared to the untreated cells (considered 100% viable), using the formula:Cell viability (%) = (T − B)/(U − B) × 100 where T = absorbance of treated cells, U = absorbance of untreated cells, and B = absorbance of culture medium (blank), for λ = 492 nm.
The cell viability data were expressed as the mean values ± standard deviations (SD) of three different experiments (n = 3). […]

Data set [2] has as its system SK-OV-3 ovary adenocarcinoma cells. Briefly: MTS cytotoxicity assay, SK-OV-3. Type of data set: cell-based, human. Particulars: Homo sapiens. As for the experimental part: as §1, §2, §3, §4
(§7) The evaluation of the compound-induced cytotoxicity was made using the CellTiter 96 Aqueous One Solution Cell Proliferation Assay (Promega, Madison, WI, USA), a reagent that contains both MTS (3-(4,5-dimethylthiazol-2-yl)-5-(3-carboxymethoxyphenyl)-2-(4-sulfophenyl)-2H-tetrazolium, inner salt) and PES ([…], a cationic dye with high chemical stability that binds to MTS and forms a stable solution).
as §5, §6
(§8) The cell viability data were expressed as the mean values ± standard deviations (SD) of three different experiments (n = 3). […] Moreover, a parallel experiment was performed in the absence of cells, with all the concentrations of the compounds being tested for their potential interference with MTS reagents; then, their absorbance values were extracted during calculations.

The nature of data set [3]: MTS cytotoxicity assay, HUVEC normal cells. The conditions noted are these: human, HUVEC human umbilical vein endothelial cells (normal cells), 40 μM, 48 h, read-out: cell viability. Type of data set: cell-based, human. The procedure:
as §1, §2, §3, §4, §7, §5, §6, §8
A general note: Tetrazolium assays rely on reduction of a dye to a coloured formazan, in cell work by metabolically active cells.

Data set [4] has as its system HUVEC human umbilical vein endothelial cells. Briefly: MTS cytotoxicity assay, HUVEC normal cells. Type of data set: cell-based. The conditions noted are these: for cytotoxic effect on HUVEC: 24 h. The procedure:
as §1, §2, §3, §4, §7, §5, §6, §8

For data set [5], the system named is SK-OV-3 ovary adenocarcinoma cells. Kind of data set: MTS cytotoxicity assay, SK-OV-3. The data set is classed as cell-based. The conditions noted are these: Homo sapiens, SK-OV-3, 40 μM, read-out: cell viability.
Data set [6] has as its system LoVo colon adenocarcinoma cells. Briefly: MTS cytotoxicity assay, LoVo. The conditions noted are these: Homo sapiens. The data set is classed as cell-based, human. As for the experimental part:
as §1, §2, §3, §4, §7, §5, §6, §8

For data set [7] the test system is unchanged. Kind of data set: MTS cytotoxicity assay, LoVo. The data set is classed as cell-based. Particulars: Homo sapiens, 200 μM, read-out: cell viability.
[8] abbreviates: MCF-7, 24 h, read-out: IC50 MCF-7 24 h.
The mark [9] stands for this setting: MCF-7, 48 h, read-out: IC50 MCF-7 48 h.

With `OC[P+](CO)(CO)CO` [THPC, tetrakis(hydroxymethyl) phosphonium chloride], in the data set on Artemia nauplii, the 50% lethal concentration (LC50) (usually the concentration that kills 50% of the test population) is under 1 µM.
In the case of `COc1cccc2c1C(=O)c1c(O)c3c(c(O)c1C2=O)C[C@@](O)(C(=O)CO)C[C@@H]3O[C@H]1C[C@H](N)[C@H](O)[C@H](C)O1` [DOX, doxorubicin, reference compound], the viability (commonly a read-out of living cells in per cent, often relative to untreated cells) at 40 µM in data set [1] (24 h) was 41.8%; in data set [1] (48 h), 36.7%; in data set [5] (24 h) it was 68.6%; in data set [5] (48 h) it was 35.2%. Also, the 50% inhibitory concentration (IC50) (in general, the concentration that inhibits the measured activity by half) is 14.8 ± 4 µM in data set [1] (setting [8]); 11.6 ± 0.53 µM in data set [1] (setting [9]); 55.4 ± 2.98 µM in data set [2] (SK-OV-3, 24 h, read-out: IC50 Sk-OV-3 24 h); 12.1 ± 0.32 µM in data set [2] (SK-OV-3, 48 h, read-out: IC50 Sk-OV-3 48 h). Also, the viability at 48 h, 40 µM in data set [3] turned out to be 81.7%. Further, in data set [4], the “cytotoxic effect on HUVEC” value is “no remarkable cytotoxic effects”.
For `O=c1[nH]cc(F)c(=O)[nH]1` [Compound 5-FU, 5-fluorouracil, reference compound], the IC50 in data set [6] (24 h, read-out: IC50 LoVo 24 h) was determined as 76.1 ± 3.09 µM; in data set [6] (48 h, read-out: IC50 LoVo 48 h), 66.2 ± 2.66 µM; in data set [1] (setting [8]) it was 80.6 ± 4.39 µM; in data set [1] (setting [9]), 60.4 ± 5.04 µM. The viability at 200 µM in data set [1] (24 h) is 45.5%; in data set [1] (48 h (drug control)) it was 18.2%; in data set [7] (24 h) it was 42.3%; in data set [7] (48 h), 28.7%. Also, the cell viability entry in data set [4] (200 μM, 48 h) is “no significant effect”. In data set [4], the “cytotoxic effect on HUVEC” value was “no remarkable cytotoxic effects”.
In the case of `O=c1n(Cl)c(=O)n(Cl)c(=O)n1Cl` [TCIC, trichloroisocyanuric acid], the median lethal concentration (LC50) in the data set with Artemia nauplii is under 1 µM.
